pIC50: −log10 of the molar value. Read-outs that look alike come from different tables or passages of the source.

The source of these data is US9493441B2, “Acyclic cyanoethylpyrazoles as janus kinase inhibitors” (Merck Sharp & Dohme Corp., priority 2011, dated 2016).

One experiment concerns the target JAK1 (Homo sapiens (Human), UniProt P23458). Kind of experiment: Jak biochemical HTRF assay, JAK1. To be noted: for IC50: JAK1 IC50 (nM), recombinant GST-tagged catalytic domain, [ATP] 31.8 μM; for pIC50: read-out: JAK1 IC50, recombinant GST-tagged catalytic domain, [ATP] 31.8 μM. Background: Time-resolved FRET reads energy transfer from a long-lived donor to a nearby acceptor.

The target of another experiment is JAK2 (Homo sapiens (Human), UniProt O60674). Kind of experiment: Jak biochemical HTRF assay, JAK2. As to conditions: for IC50: JAK2 IC50 (nM), recombinant GST-tagged catalytic domain, [ATP] […]; for pIC50: read-out: JAK2 IC50, recombinant GST-tagged catalytic domain, [ATP] […].
JAK2, sequence (O60674 849-1124): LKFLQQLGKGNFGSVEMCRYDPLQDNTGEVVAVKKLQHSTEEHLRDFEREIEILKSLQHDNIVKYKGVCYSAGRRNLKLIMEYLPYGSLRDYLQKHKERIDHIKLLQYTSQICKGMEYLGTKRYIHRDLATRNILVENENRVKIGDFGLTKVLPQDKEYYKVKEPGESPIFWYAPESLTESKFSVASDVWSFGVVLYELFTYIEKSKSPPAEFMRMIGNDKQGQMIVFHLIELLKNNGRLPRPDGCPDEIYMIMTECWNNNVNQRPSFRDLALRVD

JAK1, sequence (P23458 875-1153): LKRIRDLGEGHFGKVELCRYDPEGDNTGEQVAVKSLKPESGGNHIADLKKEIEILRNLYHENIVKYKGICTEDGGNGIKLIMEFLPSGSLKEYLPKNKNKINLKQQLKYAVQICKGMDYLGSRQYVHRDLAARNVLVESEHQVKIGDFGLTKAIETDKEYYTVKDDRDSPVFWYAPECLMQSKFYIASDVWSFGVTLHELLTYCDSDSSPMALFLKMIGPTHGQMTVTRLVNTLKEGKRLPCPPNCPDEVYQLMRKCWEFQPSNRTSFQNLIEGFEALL

The IC50 is the point on the concentration scale where inhibition reaches its midpoint. With `COC(=O)N1CCC(C(CC#N)n2cc(C(N)=O)c(Nc3ccc(F)cc3)n2)CC1` (stereo not shown) [Example 11-2, methyl 4-(1-{4-carbamoyl-3-[(4-fluorophenyl)amino]-1H-pyrazol-1-yl}-2-cyanoethyl)piperidine-1-carboxylate], the IC50 is 55 nM at JAK1 and 890 nM at JAK2.
On the same counts, the results for `N#CCC(C1CC1)n1cc(C(N)=O)c(Nc2cccc(C#N)c2)n1` (stereo not shown) [Example 4-16, 1-(2-cyano-1-cyclopropylethyl)-3-[(3-cyanophenyl)amino]-1H-pyrazole-4-carboxamide] are 19 nM and 64 nM.
On the same counts, the results for `CCC(CC#N)n1cc(C(N)=O)c(Nc2ccc(C(=O)N3CCS(=O)(=O)CC3)cc2)n1` (stereo not shown) [Example 1-17, 1-[1-{cyanomethyl)propyl]-3-({4-[(1,1-dioxidothiomorpholin-4-yl)carbonyl]phenyl}amino)-1H-pyrazole-4-carboxamide] are 19 nM and 74 nM.
The matching figures for `N#CCC(C1CCCC1)n1cc(C(N)=O)c(Nc2ccccc2)n1` (single isomer, unassigned) [Example 16-3, 1-[(1S or 1R)-2-cyano-1-cyclopentylethyl]-3-(phenylamino)-1H-pyrazole-4-carboxamide]: 47 nM and 742 nM.
For the compound `CC(C)C(CC#N)n1cc(C(N)=O)c(Nc2ccccc2)n1` (stereo not shown) [Example 1-11, 1-[1-(cyanomethyl)-2-methylpropyl]-3-(phenylamino)-1H-pyrazole-4-carboxamide], the half-maximal inhibitory concentration (IC50) turned out to be 64 nM at JAK1 and 641 nM at JAK2.
The matching figures for `CCOC(=O)N1CCC([C@H](CC#N)n2cc(C(N)=O)c(Nc3ccc(F)cc3)n2)CC1` (single isomer, unassigned) [Example 12-4, ethyl 4-[(1S or 1R)-1-{4-carbamoyl-3-[(4-fluorophenyl)amino]-1H-pyrazol-1-yl}-2-cyanoethyl]piperidine-1-carboxylate]: 44 nM and 1050 nM.
On the same counts, the results for `N#CCc1ccc(Nc2nn(C(CC#N)C3CC3)cc2C(N)=O)cc1` (stereo not shown) [Example 4-8, 1-(2-cyano-1-cyclopropylethyl)-3-{[4-(cyanomethyl)phenyl]amino}-1H-pyrazole-4-carboxamide] are 5 nM and 24 nM.
On the same counts, the results for `CC(C)(C)OC(=O)N1CCC(C(CC#N)n2cc(C(N)=O)c(Nc3ccc(F)cc3)n2)CC1` (single isomer, unassigned) [Example 14-3, tert-butyl 4-[(1S or 1R)-1-{4-carbamoyl-3-[(4-fluorophenyl)amino]-1H-pyrazol-1-yl}-2-cyanoethyl)piperidine-1-carboxylate] are 92 nM and 903 nM.
In the case of `N#CC[C@@H](C1CC1)n1cc(C(N)=O)c(Nc2ccnc(F)c2)n1` (single isomer, unassigned) [Example 17-5, 1-[(1R or 1S)-2-cyano-1-cyclopropylethyl]-3-[(2-fluoropyridin-4-yl)amino]-1H-pyrazole-4-carboxamide], the results for the IC50 on JAK1 and at JAK2 were 16 nM and 190 nM, respectively.
Broadly, the pIC50 is −log10 of the IC50, conventionally taken in molar units. Consider `Cc1noc(-c2ccc(Nc3nn([C@H](CC#N)C4CC4)cc3C(N)=O)cc2)n1` (single isomer, unassigned) [Example 18-1, 1-[(1R or 1S)-2-cyano-1-cyclopropylethyl]-3-{[4-(3-methyl-1,2,4-oxadiazol-5-yl)phenyl]amino}-1H-pyrazole-4-carboxamide], for which the results for the pIC50 at JAK1 and at JAK2 were 8.70 and 7.72, respectively.
Consider `CC[C@@H](CC#N)n1cc(C(N)=O)c(Nc2ccccc2)n1` (single isomer, unassigned) [Example 16-2, 1-[(1R or 1S)-1-(cyanomethyl)propyl]-3-(phenylamino)-1H-pyrazole-4-carboxamide], for which the values for the pIC50 at JAK1 and on JAK2 were 6.87 and 6.10, respectively.
Turning to `N#CCC(C1CCCC1)n1cc(C(N)=O)c(Nc2ccccc2)n1` (stereo not shown) [Example 1-20, 1-(2-cyano-1-cyclopentylethyl)-3-(phenylamino)-1H-pyrazole-4-carboxamide], the IC50 on JAK1 came to 69 nM; at JAK2, 474 nM.
Take `N#CCC(C1CCOC1)n1cc(C(N)=O)c(Nc2ccccc2)n1` (stereo not shown) [Example 1-14, 1-[2-cyano-1-(tetrahydrofuran-3-yl)ethyl]-3-(phenylamino)-1H-pyrazole-4-carboxamide]: the IC50 on JAK1 worked out at 126 nM; at JAK2, 1400 nM.
In the case of `N#CCC(C1CC1)n1cc(C(N)=O)c(Nc2ccc3c(c2)C=CS3(=O)=O)n1` (stereo not shown) [Example 4-35, 1-(2-cyano-1-cyclopropylethyl)-3-[(1,1-dioxido-1-benzothiophen-5-yl)amino]-1H-pyrazole-4-carboxamide], the IC50 came to 2 nM on JAK1 and 34 nM at JAK2.
Regarding `N#CCC(C1CC1)n1cc(C(N)=O)c(Nc2ccccc2)n1` (single isomer, unassigned) [Example 17-3, 1-[(1S or 1R)-2-cyano-1-cyclopropylethyl]-3-(phenylamino)-1H-pyrazole-4-carboxamide], the IC50 at JAK1 was determined as 10 nM; on JAK2 it was 79 nM.
On the same counts, the results for `CC(CC#N)n1cc(C(N)=O)c(Nc2ccc(C(=O)N3CCS(=O)(=O)CC3)cc2)n1` (stereo not shown) [Example 1-16, 1-(2-cyano-1-methylethyl)-3-({4-[(1,1-dioxidothiomorpholin-4-yl)carbonyl]phenyl}amino)-1H-pyrazole-4-carboxamide] are 19 nM and 45 nM.
As to `C[C@@H](CC#N)n1cc(C(N)=O)c(Nc2ccccc2)n1` (single isomer, unassigned) [Example 17-1, 1-[(2S or 2R)-1-cyanopropan-2-yl]-3-(phenylamino)-1H-pyrazole-4-carboxamide], the pIC50 on JAK1 was 6.65; at JAK2 it was 5.95.
`Cc1nnc(-c2ccc(Nc3nn(C(CC#N)C4CC4)cc3C(N)=O)cc2)o1` (stereo not shown) [Example 4-25, 1-(2-cyano-1-cyclopropylethyl)-3-{[4-(5-methyl-1,3,4-oxadiazol-2-yl)phenyl]amino}-1H-pyrazole-4-carboxamide]: the IC50 at JAK1 came out at 42 nM; on JAK2, 221 nM.
The matching figures for `CC(CC#N)n1cc(C(N)=O)c(Nc2ccc(S(C)(=O)=O)cc2)n1` (stereo not shown) [Example 10, 1-(2-Cyano-1-methylethyl)-3-{[4-(methylsulfonyl)phenyl]amino}-1H-pyrazole-4-carboxamide]: 7 nM and 45 nM.
Take `N#CC[C@@H](C1CCN(C(=O)OCc2ccccc2)CC1)n1cc(C(N)=O)c(Nc2ccc(F)cc2)n1` (single isomer, unassigned) [Example 12-6, benzyl 4-[(1S or 1R)-1-{4-carbamoyl-3-[(4-fluorophenyl)amino]-1H-pyrazol-1-yl}-2-cyanoethyl]piperidine-1-carboxylate]: the IC50 on JAK1 was found to be 190 nM; on JAK2, 1500 nM.
Consider `CC(C)(C)OC(=O)N1CCC(C(CC#N)n2cc(C(N)=O)c(Nc3ccc(F)cc3)n2)C1` (stereo not shown) [Example 1-3, tert-butyl 3-(1-{4-carbamoyl-3-[(4-fluorophenyl)amino]-1H-pyrazol-1-yl}-2-cyanoethyl)pyrrolidine-1-carboxylate], for which the IC50 at JAK1 amounted to 267 nM; at JAK2, 1480 nM.
On the same counts, the results for `N#CCC(C1CC1)n1cc(C(N)=O)c(Nc2ccc(S(N)(=O)=O)cc2)n1` (stereo not shown) [Example 6-3, 1-(2-cyano-1-cyclopropylethyl]-3-[(4-sulfamoylphenyl)amino]-1H-pyrazole-4-carboxamide] are 1 nM and 10 nM.
`N#CC[C@H](C1CC1)n1cc(C(N)=O)c(Nc2ccnc(F)c2)n1` (single isomer, unassigned) [Example 17-4, 1-[(1R or 1S)-2-cyano-1-cyclopropylethyl]-3-[(2-fluoropyridin-4-yl)amino]-1H-pyrazole-4-carboxamide]: the IC50 is 2 nM at JAK1 and 16 nM at JAK2.
On the same counts, the results for `CC(C)(C)COC(=O)N1CCC([C@H](CC#N)n2cc(C(N)=O)c(Nc3ccc(F)cc3)n2)CC1` (single isomer, unassigned) [Example 12-2, 2,2-dimethylpropyl 4-[(1S or 1R)-1-{4-carbamoyl-3-[(4-fluorophenyl)amino]-1H-pyrazol-1-yl}-2-cyanoethyl]piperidine-1-carboxylate] are 718 nM and 1500 nM.
The matching figures for `N#CCC(C1CC1)n1cc(C(N)=O)c(Nc2cccnc2)n1` (stereo not shown) [Example 4-6, 1-(2-cyano-1-cyclopropylethyl)-3 - (pyridin-3-ylamino)-1H-pyrazole-4-carboxamide]: 33 nM and 76 nM.
The matching figures for `CS(=O)(=O)c1ccc(Nc2nn(C(CC#N)C3CC3)cc2C(N)=O)cc1` (stereo not shown) [Example 4-1, 1-(2-Cyano-1-cyclopropylethyl)-3-{[4-(methylsulfonyl)phenyl]amino}-1H-pyrazole-4-carboxamide]: 3 nM and 28 nM.
On to `Cc1nc(-c2ccc(Nc3nn(C(CC#N)C4CC4)cc3C(N)=O)cc2)no1` (stereo not shown) [Example 4-26, 1-(2-cyano-1-cyclopropylethyl)-3-{[4-(5-methyl-1,2,4-oxadiazol-3-yl)phenyl]amino}-1H-pyrazole-4-carboxamide], for which the IC50 at JAK1 was found to be 65 nM; at JAK2, 277 nM.
The matching figures for `N#CCC(C1CC1)n1cc(C(N)=O)c(Nc2ccc3c(c2)CN(CC(=O)O)C3=O)n1` (stereo not shown) [Example 8, (5-{[4-Carbamoyl-1-(2-cyano-1-cyclopropylethyl)-1H-pyrazol-3-yl]amino}-1-oxo-1,3-dihydro-2H-isoindol-2-yl)acetic acid]: 1 nM and 34 nM.
The matching figures for `N#CCC(C1CC1)n1cc(C(N)=O)c(Nc2ccc(C(F)(F)F)cc2)n1` (stereo not shown) [Example 4-3, 1-(2-cyano-1-cyclopropylethyl)-3-{[4-(trifluoromethyl)phenyl]amino}-1H-pyrazole-4-carboxamide]: 12 nM and 110 nM.
